Measurements from patent US10183914B2 (BAYER CROPSCIENCE AKTIENGESELLSCHAFT, priority 2014, dated 2019).

Columns and labels:
Stellaria media = assay: Pre-emergence herbicidal effect; assay type: in vivo; conditions: 3 weeks
Summary of the method: (§1)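 Visual scoring at 3 weeks, relative to untreated plants, gives percent efficacy, 0% meaning like control and 100% dead plants. Weed and crop seeds in sandy loam pots received soil-surface application of WP or EC formulations in 600 to 800 L/ha water plus 0.2% wetting agent.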

Veronica persica = assay: Pre-emergence herbicidal effect; assay type: in vivo; conditions: 3 weeks
Summary of the method: as §1

Echinochloa crus-galli [1] = assay: Pre-emergence herbicidal effect; assay type: in vivo; conditions: 3 weeks
Summary of the method: as §1

Viola tricolor = assay: Pre-emergence herbicidal effect; assay type: in vivo; conditions: 3 weeks
Summary of the method: as §1

Amaranthus retroflexus = assay: Pre-emergence herbicidal effect; assay type: in vivo; conditions: 3 weeks
Summary of the method: as §1

Alopecurus myosuroides = assay: Pre-emergence herbicidal effect; assay type: in vivo; conditions: 320 g/ha, 3 weeks
Summary of the method: as §1

Matricaria inodora = assay: Pre-emergence herbicidal effect; assay type: in vivo; conditions: 3 weeks
Summary of the method: as §1

Lolium multiflorum [2] = assay: Pre-emergence herbicidal effect; assay type: in vivo; conditions: 3 weeks
Summary of the method: as §1

[3] = test system: Triticum aestivum (spring); assay: Post-emergence herbicidal effect and crop plant compatibility; assay type: in vivo; conditions: visual scoring after about 3 weeks
Method: (§2) Seeds of monocotyledonous and dicotyledonous weed and crop plants are laid out in sandy loam in wood-fiber pots, covered with soil and cultivated in a greenhouse under good growth conditions. 2 to 3 weeks after sowing, the test plants are treated at the one-leaf stage. The compounds of the invention, formulated in the form of wettable powders (WP) or as emulsion concentrates (EC), are then sprayed onto the green parts of the plants as aqueous suspension or emulsion at a water application rate equating to 600 to 800 L/ha with addition of 0.2% wetting agent. After the trial plants have been left to stand in a greenhouse under optimal growth conditions for about 3 weeks, the efficacy of the formulations is scored visually in comparison to untreated controls (herbicidal action in percent (%): 100% efficacy=the plants have died, 0% efficacy=like control plants).

Zea mays [4] = assay: as above; assay type: in vivo; conditions: visual scoring after about 3 weeks
Method: as §2

Oryza sativa [5] = assay: as above; assay type: in vivo; conditions: visual scoring after about 3 weeks
Method: as §2

Lolium multiflorum [6] = assay: Post-emergence herbicidal effect; assay type: in vivo; conditions: 320 g/ha, visual scoring after about 3 weeks
Method: as §2

[7] = test system: Triticum aestivum (spring); assay: Pre-emergence herbicidal effect and crop plant compatibility; assay type: in vivo; conditions: 3 weeks
Summary of the method: as §1

Zea mays [8] = assay: as above; assay type: in vivo; conditions: 3 weeks
Summary of the method: as §1

Oryza sativa [9] = assay: as above; assay type: in vivo; conditions: 3 weeks
Summary of the method: as §1

[10] = logp (HCOOH), physicochemical characterization
Polygonum convolvulus = assay: Pre-emergence herbicidal effect; assay type: in vivo; conditions: 3 weeks
Summary of the method: as §1

Setaria viridis [11] = assay: Pre-emergence herbicidal effect; assay type: in vivo; conditions: 3 weeks
Summary of the method: as §1

Ipomoea purpurea = assay: Post-emergence herbicidal effect; assay type: in vivo; conditions: 320 g/ha (dose by row order of upper half), scoring after about 3 weeks
Method: as §2

Echinochloa crus-galli [12] = assay: Post-emergence herbicidal effect; assay type: in vivo; conditions: visual scoring after about 3 weeks
Method: as §2

Setaria viridis [13] = assay: Post-emergence herbicidal effect; assay type: in vivo; conditions: scoring after about 3 weeks
Method: as §2

Abutilon theophrasti = assay: Pre-emergence herbicidal effect; assay type: in vivo; conditions: 320 g/ha, 3 weeks
Summary of the method: as §1

Avena fatua = assay: Pre-emergence herbicidal effect; assay type: in vivo; conditions: 320 g/ha, 3 weeks
Summary of the method: as §1

[14] = 320 g/ha (dose by row order of upper half)

Structure (SMILES) | STEME herbicidal activity in percent (Stellaria media; 320 g/ha) [%] | VERPE herbicidal activity in percent (Veronica persica; 320 g/ha) [%] | ECHCG herbicidal activity in percent (Echinochloa crus-galli [1]; 320 g/ha) [%] | VIOTR herbicidal activity in percent (Viola tricolor; 320 g/ha) [%] | AMARE herbicidal activity in percent (Amaranthus retroflexus; 320 g/ha) [%] | ALOMY herbicidal activity in percent (Alopecurus myosuroides) [%] | MATIN herbicidal activity in percent (Matricaria inodora; 320 g/ha) [%] | LOLMU herbicidal activity in percent (Lolium multiflorum [2]; 320 g/ha) [%] | post-emergence efficacy TRZAS ([3]; 80 g/ha) [%] | post-emergence efficacy TRZAS ([3]; 320 g/ha) [%] | post-emergence efficacy ZEAMX (Zea mays [4]; 80 g/ha) [%] | post-emergence efficacy ZEAMX (Zea mays [4]; 320 g/ha) [%] | post-emergence efficacy ORYSA (Oryza sativa [5]; 80 g/ha) [%] | post-emergence efficacy ORYSA (Oryza sativa [5]; 320 g/ha) [%] | TRZAS herbicidal activity in percent ([7]; 320 g/ha) [%] | ZEAMX herbicidal activity in percent (Zea mays [8]; 320 g/ha) [%] | ORYSA herbicidal activity in percent (Oryza sativa [9]; 320 g/ha) [%] | logp (HCOOH) [10] | POLCO herbicidal activity in percent (Polygonum convolvulus; 320 g/ha) [%] | SETVI herbicidal activity in percent (Setaria viridis [11]; 320 g/ha) [%] | further results
CC(C)C1CC(=O)c2cnc(N[C@@H]3CCc4ccccc43)nc2C1 (stereo partly drawn) [2.103] | 100 | 100 | 100 | 100 | 100 | 80 | 100 | 90 | 10 | 20 | 0 | 0 | 0 | 0 | 0 | 0 | 0 |  |  |  | STEME herbicidal activity in percent (Stellaria media; 80 g/ha): 100%; VERPE herbicidal activity in percent (Veronica persica; 80 g/ha): 100%; ECHCG herbicidal activity in percent (Echinochloa crus-galli [1]; 80 g/ha): 90%; AMARE herbicidal activity in percent (Amaranthus retroflexus; 80 g/ha): 100%; MATIN herbicidal activity in percent (Matricaria inodora; 80 g/ha): 100%; post-emergence efficacy LOLMU (Lolium multiflorum [6]): 80%; TRZAS herbicidal activity in percent ([7]; 80 g/ha): 0%; ZEAMX herbicidal activity in percent (Zea mays [8]; 80 g/ha): 0%; ORYSA herbicidal activity in percent (Oryza sativa [9]; 80 g/ha): 0%
Cc1ccc2c(c1)[C@H](Nc1ncc3c(n1)CCCC3=O)[C@@H](C)C2 [2.118] | 100 | 100 | 100 | 100 | 100 | 90 | 100 | 100 | 0 |  | 0 | 10 | 0 | 0 |  | 0 | 10 | oily; logp (HCOOH): 4.51; 1H-NMR (CDCl3, 400 MHZ, δ in ppm): 1.25 (d, 3H, 3H | 100 | 100 | STEME herbicidal activity in percent (Stellaria media; 80 g/ha): 100%; VERPE herbicidal activity in percent (Veronica persica; 80 g/ha): 100%; VIOTR herbicidal activity in percent (Viola tricolor; 80 g/ha): 100%; AMARE herbicidal activity in percent (Amaranthus retroflexus; 80 g/ha): 100%; SETVI herbicidal activity in percent (Setaria viridis [11]; 80 g/ha): 100%; MATIN herbicidal activity in percent (Matricaria inodora; 80 g/ha): 90%; LOLMU herbicidal activity in percent (Lolium multiflorum [2]; 80 g/ha): 80%; post-emergence efficacy PHBPU (Ipomoea purpurea): 100%; post-emergence efficacy ECHCG (Echinochloa crus-galli [12]; 320 g/ha): 100%; post-emergence efficacy SETVI (Setaria viridis [13]; [14]): 80%; post-emergence efficacy LOLMU (Lolium multiflorum [6]): 80%; TRZAS herbicidal activity in percent ([7]; 80 g/ha): 0%; ZEAMX herbicidal activity in percent (Zea mays [8]; 80 g/ha): 0%; ORYSA herbicidal activity in percent (Oryza sativa [9]; 80 g/ha): 10%
Cc1cccc2c1OCC[C@H]2Nc1ncc2c(n1)CCCC2=O [2.100] | 100 | 100 | 100 | 100 | 100 | 80 | 100 | 100 | 10 | 20 | 10 | 10 | 0 | 0 | 10 | 10 |  |  | 90 | 100 | STEME herbicidal activity in percent (Stellaria media; 80 g/ha): 100%; VERPE herbicidal activity in percent (Veronica persica; 80 g/ha): 100%; ABUTH herbicidal activity in percent (Abutilon theophrasti): 90%; ECHCG herbicidal activity in percent (Echinochloa crus-galli [1]; 80 g/ha): 100%; VIOTR herbicidal activity in percent (Viola tricolor; 80 g/ha): 100%; POLCO herbicidal activity in percent (Polygonum convolvulus; 80 g/ha): 90%; AMARE herbicidal activity in percent (Amaranthus retroflexus; 80 g/ha): 100%; SETVI herbicidal activity in percent (Setaria viridis [11]; 80 g/ha): 100%; MATIN herbicidal activity in percent (Matricaria inodora; 80 g/ha): 100%; post-emergence efficacy ECHCG (Echinochloa crus-galli [12]; 80 g/ha): 100%; post-emergence efficacy ECHCG (Echinochloa crus-galli [12]; 320 g/ha): 100%; post-emergence efficacy SETVI (Setaria viridis [13]; 80 g/ha (dose by row order of upper half)): 90%; post-emergence efficacy SETVI (Setaria viridis [13]; [14]): 90%; post-emergence efficacy LOLMU (Lolium multiflorum [6]): 100%; TRZAS herbicidal activity in percent ([7]; 80 g/ha): 0%; ZEAMX herbicidal activity in percent (Zea mays [8]; 80 g/ha): 0%
O=C1CC(C(F)(F)F)Cc2nc(N[C@@H]3CCCc4ccccc43)ncc21 (stereo partly drawn) [2.96] | 100 | 100 | 100 | 100 | 100 | 80 | 90 | 90 | 10 | 20 | 0 | 10 | 0 | 0 | 0 | 10 | 0 | oily; logp (HCOOH): 3.71; 1H-NMR (CDCl3, 400 MHZ, δ in ppm): ): 1.95 (m, 3H, 2H | 80 | 90 | STEME herbicidal activity in percent (Stellaria media; 80 g/ha): 100%; VERPE herbicidal activity in percent (Veronica persica; 80 g/ha): 100%; VIOTR herbicidal activity in percent (Viola tricolor; 80 g/ha): 100%; AMARE herbicidal activity in percent (Amaranthus retroflexus; 80 g/ha): 100%; post-emergence efficacy PHBPU (Ipomoea purpurea): 80%; TRZAS herbicidal activity in percent ([7]; 80 g/ha): 0%; ZEAMX herbicidal activity in percent (Zea mays [8]; 80 g/ha): 0%
Cc1ccc2c(c1)C(Nc1ncc3c(n1)CCCC3=O)CO2 (racemic) [2.117] |  |  |  |  |  |  | 100 |  |  |  |  |  |  |  | 0 | 20 | 0 | oily; logp (HCOOH): 2.52; 1H-NMR (CDCl3, 400 MHZ, δ in ppm): 2.10 (m, 2H, 2H |  |  | ABUTH herbicidal activity in percent (Abutilon theophrasti): 80%
CC1(C)CC(=O)c2cnc(NC3CCOc4ccccc43)nc2C1 (racemic) [2.94] | 100 | 100 | 100 | 100 | 100 | 80 | 100 | 90 | 10 | 20 | 0 | 0 | 0 | 0 | 0 | 0 | 0 | oily; logp (HCOOH): 2.97; 1H-NMR (CDCl3, 400 MHZ, δ in ppm): 1.10 (s, 6H, | 100 | 90 | post-emergence efficacy PHBPU (Ipomoea purpurea): 80%
O=C1CCCc2nc(N[C@@H]3CCOc4c(F)cccc43)ncc21 [2.19] | 100 | 100 | 100 | 100 | 100 | 100 | 100 | 100 |  | 20 |  |  |  | 20 | 0 | 10 |  | oily; logp (HCOOH): 2.29; 1H-NMR (CDCl3, 400 MHZ, δ in ppm): 2.15 (m, 3H, 2H | 100 | 100 | AVEFA herbicidal activity in percent (Avena fatua): 90%; post-emergence efficacy PHBPU (Ipomoea purpurea): 80%; post-emergence efficacy ECHCG (Echinochloa crus-galli [12]; 320 g/ha): 100%; post-emergence efficacy LOLMU (Lolium multiflorum [6]): 100%
